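Tested at 5 concentrations; 48 h exposure; 96-well plates; endpoints linearly interpolated, else capped at highest concentration. TGI denotes the concentration required for complete inhibition of growth.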
Legend:
Assay in all cases: DTP human tumour cell line panel, 48 h
OVCAR-8 ovarian = system: OVCAR-8 ovarian
SK-OV-3 ovarian = system: SK-OV-3 ovarian
UACC-62 melanoma = system: UACC-62 melanoma
SK-MEL-2 melanoma = system: SK-MEL-2 melanoma
MOLT-4 leukemia = system: MOLT-4 leukemia
OVCAR-4 ovarian = system: OVCAR-4 ovarian
MDA-MB-231 breast = system: MDA-MB-231 breast
HCT-116 colon = system: HCT-116 colon
UACC-257 melanoma = system: UACC-257 melanoma
MDA-MB-435 = system: MDA-MB-435
HT29 colon = system: HT29 colon
SF-295 CNS = system: SF-295 CNS
SF-268 CNS = system: SF-268 CNS
LOX IMVI melanoma = system: LOX IMVI melanoma
OVCAR-5 ovarian = system: OVCAR-5 ovarian
NCI-H460 lung = system: NCI-H460 lung
SN12C renal = system: SN12C renal
U251 CNS = system: U251 CNS
TK-10 renal = system: TK-10 renal
COLO 205 colon = system: COLO 205 colon
IGROV1 ovarian = system: IGROV1 ovarian
NCI/ADR-RES ovarian = system: NCI/ADR-RES ovarian
SF-539 CNS = system: SF-539 CNS
OVCAR-3 ovarian = system: OVCAR-3 ovarian
SK-MEL-28 melanoma = system: SK-MEL-28 melanoma
HL-60(TB) leukemia = system: HL-60(TB) leukemia
EKVX NSCLC = system: EKVX NSCLC
ACHN renal = system: ACHN renal
SW-620 colon = system: SW-620 colon
PC-3 prostate = system: PC-3 prostate
BT-549 breast = system: BT-549 breast
SNB-75 CNS = system: SNB-75 CNS
DU-145 prostate = system: DU-145 prostate
CCRF-CEM leukemia = system: CCRF-CEM leukemia
A549 NSCLC = system: A549 NSCLC
RXF 393 renal = system: RXF 393 renal
K-562 leukemia = system: K-562 leukemia
HCT-15 colon = system: HCT-15 colon
NCI-H23 lung = system: NCI-H23 lung
MDA-N = system: MDA-N
CAKI-1 renal = system: CAKI-1 renal
HOP-92 NSCLC = system: HOP-92 NSCLC
RPMI-8226 leukemia = system: RPMI-8226 leukemia
HCC-2998 colon = system: HCC-2998 colon
A498 renal = system: A498 renal
T-47D breast = system: T-47D breast
M14 melanoma = system: M14 melanoma
UO-31 renal = system: UO-31 renal
SK-MEL-5 melanoma = system: SK-MEL-5 melanoma
KM12 colon = system: KM12 colon
MCF7 breast = system: MCF7 breast
SNB-19 CNS = system: SNB-19 CNS

CCCCN(CCCC)c1ccc(N=Nc2ccc(S(=O)(=O)O)cc2)cc1
TGI (OVCAR-8 ovarian): 44.9 µM | TGI (SK-OV-3 ovarian): > 100 µM | TGI (UACC-62 melanoma): > 100 µM | TGI (SK-MEL-2 melanoma): > 100 µM | TGI (MOLT-4 leukemia): 35.2 µM | TGI (OVCAR-4 ovarian): 74.7 µM | TGI (MDA-MB-231 breast): 64.7 µM | TGI (HCT-116 colon): 29.4 µM | TGI (UACC-257 melanoma): > 100 µM | TGI (MDA-MB-435): > 100 µM | TGI (HT29 colon): 85.1 µM | TGI (SF-295 CNS): > 100 µM | TGI (SF-268 CNS): > 100 µM | TGI (LOX IMVI melanoma): 42.8 µM | TGI (OVCAR-5 ovarian): > 100 µM | TGI (NCI-H460 lung): > 100 µM | TGI (SN12C renal): 85 µM | TGI (U251 CNS): > 100 µM | TGI (TK-10 renal): > 100 µM | TGI (COLO 205 colon): 37.8 µM | TGI (IGROV1 ovarian): 43.1 µM | TGI (NCI/ADR-RES ovarian): 70.9 µM | TGI (SF-539 CNS): 33.4 µM | TGI (OVCAR-3 ovarian): > 100 µM | TGI (SK-MEL-28 melanoma): > 100 µM | TGI (HL-60(TB) leukemia): 53.1 µM | TGI (EKVX NSCLC): > 100 µM | TGI (ACHN renal): > 100 µM | TGI (SW-620 colon): > 100 µM | TGI (PC-3 prostate): 97.1 µM | TGI (BT-549 breast): > 100 µM | TGI (SNB-75 CNS): 39.2 µM | TGI (DU-145 prostate): > 100 µM | TGI (CCRF-CEM leukemia): 38.4 µM | TGI (A549 NSCLC): > 100 µM | TGI (RXF 393 renal): 29.8 µM | TGI (K-562 leukemia): > 100 µM | TGI (HCT-15 colon): 40.4 µM | TGI (NCI-H23 lung): 47.2 µM | TGI (MDA-N): > 100 µM | TGI (CAKI-1 renal): 49.6 µM | TGI (HOP-92 NSCLC): 22.1 µM | TGI (RPMI-8226 leukemia): 53.5 µM | TGI (HCC-2998 colon): 73.7 µM | TGI (A498 renal): > 100 µM | TGI (T-47D breast): 55.5 µM | TGI (M14 melanoma): > 100 µM | TGI (UO-31 renal): > 100 µM | TGI (SK-MEL-5 melanoma): 43.4 µM | TGI (KM12 colon): 32.8 µM | TGI (MCF7 breast): 49.6 µM | TGI (SNB-19 CNS): > 100 µM

Reference: PubChem BioAssay (NCI)
